PubChem BioAssay AID248 (DTP/NCI, 2004)
Inconclusive results and toxic doses are left out. Cut-off read from the data, not from the text of the source: active = T/C of 150% or more; inactive = T/C below 125%.

System: L1210 leukemia ip in BDF1 mice, survival T/C
Test: NCI In Vivo Anticancer Drug Screen. Data for tumor model L1210 Leukemia (intraperitoneal) in B6D2F1 (BDF1) mice
Conditions: endpoint: mean survival time, higher = longer survival
In short: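 Tumor was transplanted into mice, which were then dosed with test compound or vehicle alone. Survival was recorded for each group, and the treated figure was expressed relative to the control figure.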

Measured: T/C

Nc1nc2c(c(-c3ccccc3)n1)CN(c1ccc(Br)cc1)C2=O
inactive: dose: 50.0 mg/kg/injection, schedule: Q01DX009 (ip), vehicle: saline 95 % of control | dose: 100.0 mg/kg/injection, schedule: Q01DX009 (ip), vehicle: saline 92 % of control | dose: 100.0 mg/kg/injection, schedule: Q04DX003 (ip), vehicle: saline 90 % of control | dose: 200.0 mg/kg/injection, schedule: Q01DX009 (ip), vehicle: saline 92 % of control | dose: 200.0 mg/kg/injection, schedule: Q04DX003 (ip), vehicle: saline 95 % of control | dose: 400.0 mg/kg/injection, schedule: Q04DX003 (ip), vehicle: saline 90 % of control

[O-][n+]1ccccc1Br
inactive: dose: 50.0 mg/kg/injection, schedule: Q01DX009 (ip), vehicle: water 104 % of control | dose: 100.0 mg/kg/injection, schedule: Q01DX009 (ip), vehicle: water 98 % of control | dose: 100.0 mg/kg/injection, schedule: Q04DX003 (ip), vehicle: water 95 % of control | dose: 150.0 mg/kg/injection, schedule: Q01DX009 (ip), vehicle: water 95 % of control | dose: 200.0 mg/kg/injection, schedule: Q04DX003 (ip), vehicle: water 115 % of control

O=C(c1ccccc1)c1ccc(Br)cc1O
inactive: dose: 100.0 mg/kg/injection, schedule: Q01DX001 (ip), vehicle: carboxymethylcellulose (CMC) 105 % of control | dose: 200.0 mg/kg/injection, schedule: Q01DX001 (ip), vehicle: carboxymethylcellulose (CMC) 98 % of control | dose: 400.0 mg/kg/injection, schedule: Q01DX001 (ip), vehicle: carboxymethylcellulose (CMC) 100 % of control

Cc1cc([N+](=O)[O-])c(C)cc1Cl
inactive: dose: 100.0 mg/kg/injection, schedule: Q01DX009 (ip), vehicle: saline sonified 98 % of control | dose: 100.0 mg/kg/injection, schedule: Q04DX003 (ip), vehicle: Klucel (hydroxypropylcellulose) (HPC) 98 % of control | dose: 200.0 mg/kg/injection, schedule: Q01DX009 (ip), vehicle: saline sonified 100 % of control | dose: 200.0 mg/kg/injection, schedule: Q04DX003 (ip), vehicle: Klucel (hydroxypropylcellulose) (HPC) 98 % of control | dose: 400.0 mg/kg/injection, schedule: Q01DX009 (ip), vehicle: saline sonified 100 % of control | dose: 400.0 mg/kg/injection, schedule: Q04DX003 (ip), vehicle: Klucel (hydroxypropylcellulose) (HPC) 98 % of control

CC(=O)c1cccc(NC(=O)Nc2ccc(S(N)(=O)=O)cc2)c1
inactive: dose: 100.0 mg/kg/injection, schedule: Q01DX009 (ip), vehicle: saline with Tween-80 105 % of control | dose: 200.0 mg/kg/injection, schedule: Q01DX009 (ip), vehicle: saline with Tween-80 97 % of control

Cc1ccc(NC(=O)Oc2ccccc2F)cc1NC(=O)Oc1ccccc1F
inactive: dose: 100.0 mg/kg/injection, schedule: Q01DX009 (ip), vehicle: other 102 % of control | dose: 200.0 mg/kg/injection, schedule: Q01DX009 (ip), vehicle: other 90 % of control | dose: 400.0 mg/kg/injection, schedule: Q01DX009 (ip), vehicle: other 94 % of control

O=[N+]([O-])c1ccc(NCc2ccccc2)c2c1no[n+]2[O-]
inactive: dose: 37.5 mg/kg/injection, schedule: Q04DX003 (ip), vehicle: saline with Tween-80 100 % of control | dose: 75.0 mg/kg/injection, schedule: Q04DX003 (ip), vehicle: saline with Tween-80 106 % of control | dose: 150.0 mg/kg/injection, schedule: Q04DX003 (ip), vehicle: saline with Tween-80 100 % of control

O=[N+]([O-])c1ccc(Oc2ccc[n+]([O-])c2)c([N+](=O)[O-])c1
inactive: dose: 50.0 mg/kg/injection, schedule: Q01DX009 (ip), vehicle: Klucel (hydroxypropylcellulose) (HPC) 102 % of control | dose: 100.0 mg/kg/injection, schedule: Q01DX009 (ip), vehicle: Klucel (hydroxypropylcellulose) (HPC) 102 % of control | dose: 100.0 mg/kg/injection, schedule: Q04DX003 (ip), vehicle: saline with Tween-80 96 % of control
